# Like-named read-outs stand apart in the source and are kept apart here.
# Key:
# gastric (BGC-823) = test: Anticancer activity in vitro (Table 3), BGC-823; assay type: cell-based, human; conditions: for GI50 / IC50 / CC50: Homo sapiens, BGC-823, 48 h; for BGC-823 TGI: 48 h; for CC50: read-out: BGC-823 LC50
# Prostate (PC-3) = test: Anticancer activity in vitro (Table 3), PC-3; assay type: cell-based, human; conditions: 48 h; for GI50 / IC50 / LC50: Homo sapiens
# Cdk1/Cyclin B = Cdk1/Cyclin B (Homo sapiens, UniProt P06493); test: Cdk1/Cyclin B inhibitory activity, Z'-LYTE Kinase Assay; assay type: biochemical; conditions: for IC50: ATP 10 μM, 8 concentrations of 0.01-25 μM
# Sequence of Cdk1/Cyclin B (P06493 whole entry): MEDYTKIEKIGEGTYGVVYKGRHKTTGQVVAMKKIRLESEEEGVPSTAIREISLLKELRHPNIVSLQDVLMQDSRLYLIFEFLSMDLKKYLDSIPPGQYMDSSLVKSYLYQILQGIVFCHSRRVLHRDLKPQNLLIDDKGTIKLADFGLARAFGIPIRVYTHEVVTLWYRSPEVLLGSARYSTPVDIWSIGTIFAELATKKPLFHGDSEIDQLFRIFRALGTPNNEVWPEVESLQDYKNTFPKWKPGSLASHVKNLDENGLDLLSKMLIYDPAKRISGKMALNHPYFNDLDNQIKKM
# Sequence of Cdk1/Cyclin B (P14635 whole entry partner): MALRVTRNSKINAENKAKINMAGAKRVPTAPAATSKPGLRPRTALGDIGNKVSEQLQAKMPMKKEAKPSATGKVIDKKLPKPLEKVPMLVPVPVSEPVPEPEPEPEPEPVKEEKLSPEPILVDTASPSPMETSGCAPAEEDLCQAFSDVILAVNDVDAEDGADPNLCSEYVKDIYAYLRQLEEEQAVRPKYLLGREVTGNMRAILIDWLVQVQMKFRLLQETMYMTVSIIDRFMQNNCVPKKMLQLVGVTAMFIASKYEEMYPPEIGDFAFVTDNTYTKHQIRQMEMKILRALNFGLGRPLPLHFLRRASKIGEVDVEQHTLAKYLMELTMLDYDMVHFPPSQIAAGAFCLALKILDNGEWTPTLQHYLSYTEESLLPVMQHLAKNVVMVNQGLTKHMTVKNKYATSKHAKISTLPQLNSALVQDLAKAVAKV
# MCF-7 = test: cells; conditions: Homo sapiens; for CC50: MCF7, read-out: MCF-7 LC50; for GI50: MCF7, read-out: MCT-7 GI50
# [1] = Druggability screening: blood drug concentration and half-life; conditions: equilibrium phase
# [2] = Druggability screening: solubility in PBS (pH7.4); assay type: physicochemical; conditions: pH 7.4, aqueous buffer
# Breast (MCF-7) = test: Anticancer activity in vitro (Table 3), MCF-7; assay type: cell-based, human; conditions: for MCF-7 TGI: 48 h; for GI50 / IC50 / CC50: Homo sapiens, MCF7, 48 h; for CC50: read-out: MCF-7 LC50
# [3] = Druggability screening: protein binding rate; assay type: in vitro ADME
# [4] = tested on: 58 kinds human tumor cell; test: NCI growth inhibition of 58 kinds human tumor cell; assay type: cell-based; conditions: 48 h, by NCI, read-out: growth inhibition rates in vitro 58 kinds human tumor cell
# [5] = in vivo
# CD4+T lymphocytes = test: Differentiate growth inhibition of CD4+T lymphocytes; assay type: cell-based; conditions: 48 h, induced by growth factor IL-3 and IL-5, read-out: differentiate growth inhibition rates of CD4+T lymphocytes
# Description: These show a good prospect against AIDS, and are going to be prepared anti-AIDS drugs.
smiles,measurement,setting,value
COc1c(O)c(CN2CCN(C)CC2)c2oc(-c3ccccc3)cc(=O)c2c1O [6-OCH3— Methylpiperazine Baicalein],GI50,gastric (BGC-823),26.2 µM
same,IC50,gastric (BGC-823),115 µM
same,PC-3 TGI,Prostate (PC-3),76.1 µM
same,GI50,Prostate (PC-3),11.2 µM
same,IC50,Prostate (PC-3),87.6 µM
same,IC50,Cdk1/Cyclin B,0.88 µM
same,CC50,MCF-7,> 100 µM
same,GI50,MCF-7,26.1 µM
"O=c1cc(-c2ccccc2)oc2cc(O)c(O)c(O)c12 [Baicalein, reference compound]",Blood drug concentration,[1],0.026 µM
same,half-life,in vivo,5.26 h
same,IC50,Cdk1/Cyclin B,2.08 µM
"O=C(O)[C@H]1O[C@@H](Oc2cc3oc(-c4ccccc4)cc(=O)c3c(O)c2O)[C@H](O)[C@@H](O)[C@@H]1O [Baicalin, reference compound]",inhibition against Cdk1/Cyclin B (in words),Cdk1/Cyclin B,slight inhibition
same,IC50,Cdk1/Cyclin B,18.1 µM
"COc1c(O)c(CN(CCO)CCO)c(O)c2c(=O)cc(-c3ccccc3)oc12 [Diethanolamin Wogonin, 6-((bis(2-hydroxyethyl)amino)methyl)-5,7-dihydroxy-8-methoxy-2-phenyl-4H-chromen-4-one]",IC50,Cdk1/Cyclin B,0.31 µM
CN(C)Cc1c(O)c(O)c(O)c2c(=O)cc(-c3ccccc3)oc12 [Dimethylamine Baicalein],GI50,MCF-7,12.3 µM
"COc1c(O)c(CN(C)C)c(O)c2c(=O)cc(-c3ccccc3)oc12 [Dimethylamine Wogonin, 6-((dimethylamino)methyl)-5,7-dihydroxy-8-methoxy-2-phenyl-4H-chromen-4-one]",IC50,Cdk1/Cyclin B,7.63 µM
"CN1CCC(c2c(O)cc(O)c3c(=O)cc(-c4ccccc4Cl)oc23)C1CO (centres unmarked) [Example P276-00, reference compound]",IC50,Cdk1/Cyclin B,0.79 µM
"CN1CC[C@H](c2c(O)cc(O)c3c(=O)cc(-c4ccccc4Cl)oc23)[C@H](O)C1 [Flavopiridol, reference compound]",GI50,MCF-7,0.048 µM
"O=c1cc(-c2ccccc2)oc2c(CN3CCN(CCO)CC3)c(O)c(O)c(O)c12 [Hydroxyethylpiperazine Baicalein, 5,6,7-trihydroxy-8-((4-(2-hydroxyethyl)piperazin-1-yl)methyl)-2-phenyl-4H-chromen-4-one]",solubility,[2],607 µM
same,BGC-823 TGI,gastric (BGC-823),15.4 µM
same,GI50,gastric (BGC-823),6.1 µM
same,IC50,gastric (BGC-823),19.3 µM
same,CC50,gastric (BGC-823),51 µM
same,PC-3 TGI,Prostate (PC-3),15.4 µM
same,GI50,Prostate (PC-3),6.2 µM
same,IC50,Prostate (PC-3),11.6 µM
same,LC50,Prostate (PC-3),36.6 µM
same,half-life,in vivo,3.75 h
same,IC50,Cdk1/Cyclin B,0.28 µM
same,MCF-7 TGI,Breast (MCF-7),15.4 µM
same,GI50,Breast (MCF-7),6 µM
same,IC50,Breast (MCF-7),20.4 µM
same,CC50,Breast (MCF-7),32.6 µM
same,fraction unbound,[3],0.04
same,CC50,MCF-7,42.1 µM
same,GI50,MCF-7,13.1 µM
same,inhibition at 10 µM,[4],46.2%
same,Blood drug concentration,[5],31.6 µM
"COc1c(O)c(CN2CCN(CCO)CC2)c(O)c2c(=O)cc(-c3ccccc3)oc12 [Hydroxyethylpiperazine Wogonin, 6-((4-(2-hydroxyethyl)piperazin-1-yl)methyl)-5,7-dihydroxy-8-methoxy-2-phenyl-4H-chromen-4-one]",solubility,[2],9390 µM
same,inhibition at 10 µM,CD4+T lymphocytes,55%
same,half-life,in vivo,4 h
same,IC50,Cdk1/Cyclin B,0.32 µM
same,CC50,MCF-7,43.1 µM
same,GI50,MCF-7,11.1 µM
same,Blood drug concentration,[5],94.0 µM
"O=c1cc(-c2ccccc2)oc2c(CN3CCC(O)C3)c(O)c(O)c(O)c12 (centres unmarked) [Hydroxylpyrrolidine Baicalein, 5,6,7-trihydroxy-8-((3-hydroxypyrrolidin-1-yl)methyl)-2-phenyl-4H-chromen-4-one]",IC50,Cdk1/Cyclin B,0.29 µM
"O=c1cc(-c2ccccc2)oc2c(CN3CCC(O)CC3)c(O)c(O)c(O)c12 [Hydroxypiperidin Baicalein, 5,6,7-trihydroxy-8-((4-hydroxypiperidin-1-yl)methyl)-2-phenyl-4H-chromen-4-one]",solubility,[2],377 µM
same,BGC-823 TGI,gastric (BGC-823),16.4 µM
same,GI50,gastric (BGC-823),5.7 µM
same,IC50,gastric (BGC-823),18.6 µM
same,CC50,gastric (BGC-823),53.1 µM
same,PC-3 TGI,Prostate (PC-3),16.4 µM
same,GI50,Prostate (PC-3),6 µM
same,IC50,Prostate (PC-3),18.1 µM
same,LC50,Prostate (PC-3),41 µM
same,inhibition at 10 µM,CD4+T lymphocytes,46.2%
same,half-life,in vivo,4.23 h
same,IC50,Cdk1/Cyclin B,0.3 µM
same,MCF-7 TGI,Breast (MCF-7),16.4 µM
same,GI50,Breast (MCF-7),6 µM
same,IC50,Breast (MCF-7),20.1 µM
same,CC50,Breast (MCF-7),31 µM
same,fraction unbound,[3],0.09
same,CC50,MCF-7,40.1 µM
same,GI50,MCF-7,10.2 µM
same,inhibition at 10 µM,[4],40.6%
same,Blood drug concentration,[5],28.7 µM
"COc1c(O)c(CN2CCC(O)CC2)c(O)c2c(=O)cc(-c3ccccc3)oc12 [Hydroxypiperidine Wogonin, 5,7-dihydroxy-6-((4-hydroxypiperidin-1-yl)methyl)-8-methoxy-2-phenyl-4H-chromen-4-one]",IC50,Cdk1/Cyclin B,6.91 µM

# — patent US8377895B2, “Cyclin-dependent protein kinases inhibitors of Scutellaria flavonoid organic amine derivatives, synthesis and use thereof” (priority 2008, dated 2013)
